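All cell lines were grown in 96-well plates and treated with compound for 48 hours. TGI is the concentration that stops growth completely.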
Test system: PC-3 prostate
Test: NCI-60 cell line screen, 48 h

Compound | TGI [µM]
COc1ccc(CCNC2=CC(=O)c3ncccc3C2=O)cc1OC | 23.4
CC1(C)OCC2OC3(c4nc(C#N)c(N)o4)OC(C)(C)OC3C2O1 (stereo not drawn) | > 100
CC12CCC(C(=O)OC1=O)C2(C)C (stereo not drawn) | > 100
COn1cc(C=O)c2ccccc21 | > 100
CC1=CC(C2/C(=N/O)C=C(C)CC2(C)C)C(O)C(C)(C)C1 (stereo not drawn) | 29.8
C=CCNC1=C2C[C@@H](C)C[C@@H](OC)[C@@H](OC(=O)CCCN)[C@H](C)/C=C(\C)[C@@H](OC(N)=O)[C@H](OC)/C=C\C=C(/C)C(=O)NC(=CC1=O)C2=O | 29.1
c1cc(-c2ncc(-c3ccc4c(c3)CCCO4)o2)ccn1 | 46.5
O=C1NC(=O)C(c2c[nH]c3cc(Br)ccc23)=C1c1cn(C(c2ccccc2)(c2ccccc2)c2ccccc2)cn1 | 50.4
CC(C)=CCS(=O)c1ccccc1NC1=CC(=O)CC(C)(C)C1 (stereo not drawn) | > 100
COC(=O)C1=C(C)NC(C)=C(C(=O)OC)C1c1ccc(/[N+]([O-])=C/c2ccccc2)cc1 | > 100
Cc1cc(C)cc(C(=N)c2ccccc2Cc2cccc3ccccc23)c1 | > 100
COC1=C(Br)[C@H](O)[C@@]2(C=C1Br)CC(C(=O)NCCCCCN=C(N)N)=NO2 | > 10
CC1(C#N)CC(C)(C)C(/C=C2/CC(C)(C)C(/C=C3/OC(=N)CC3(C)C)=N2)=N1 (stereo not drawn) | > 100
C#CCn1ncc2c(SCc3ccccc3)ncnc21 | > 100
CCOC(=O)CC1c2ccc(O)cc2OC(=O)C1c1ccc([N+](=O)[O-])cc1 (stereo not drawn) | 67.2
CCN1c2nc3ccccc3nc2N(CC)c2nc3ccccc3nc21 | > 100
CCN(CC)/C(Cl)=C(Cl)\C(=C1\Nc2ccc(OC)cc21)[N+](=O)[O-] | > 100

Test system: RXF 393 renal
Test: NCI-60 cell line screen, 48 h

Compound | TGI [µM]
COc1ccc(CCNC2=CC(=O)c3ncccc3C2=O)cc1OC | 15.2
CC1(C)OCC2OC3(c4nc(C#N)c(N)o4)OC(C)(C)OC3C2O1 (stereo not drawn) | > 100
CC12CCC(C(=O)OC1=O)C2(C)C (stereo not drawn) | > 100
COn1cc(C=O)c2ccccc21 | > 100
CC1=CC(C2/C(=N/O)C=C(C)CC2(C)C)C(O)C(C)(C)C1 (stereo not drawn) | 30
C=CCNC1=C2C[C@@H](C)C[C@@H](OC)[C@@H](OC(=O)CCCN)[C@H](C)/C=C(\C)[C@@H](OC(N)=O)[C@H](OC)/C=C\C=C(/C)C(=O)NC(=CC1=O)C2=O | 42.2
c1cc(-c2ncc(-c3ccc4c(c3)CCCO4)o2)ccn1 | > 100
O=C1NC(=O)C(c2c[nH]c3cc(Br)ccc23)=C1c1cn(C(c2ccccc2)(c2ccccc2)c2ccccc2)cn1 | 37.5
CC(C)=CCS(=O)c1ccccc1NC1=CC(=O)CC(C)(C)C1 (stereo not drawn) | > 100
COC(=O)C1=C(C)NC(C)=C(C(=O)OC)C1c1ccc(/[N+]([O-])=C/c2ccccc2)cc1 | 41.1
Cc1cc(C)cc(C(=N)c2ccccc2Cc2cccc3ccccc23)c1 | 31.9
COC1=C(Br)[C@H](O)[C@@]2(C=C1Br)CC(C(=O)NCCCCCN=C(N)N)=NO2 | > 10
CC1(C#N)CC(C)(C)C(/C=C2/CC(C)(C)C(/C=C3/OC(=N)CC3(C)C)=N2)=N1 (stereo not drawn) | 44.5
C#CCn1ncc2c(SCc3ccccc3)ncnc21 | > 100
CCOC(=O)CC1c2ccc(O)cc2OC(=O)C1c1ccc([N+](=O)[O-])cc1 (stereo not drawn) | 64.4
CCN1c2nc3ccccc3nc2N(CC)c2nc3ccccc3nc21 | > 100
CCN(CC)/C(Cl)=C(Cl)\C(=C1\Nc2ccc(OC)cc21)[N+](=O)[O-] | 72.9

Test system: SN12C renal
Test: NCI-60 cell line screen, 48 h

Compound | TGI [µM]
COc1ccc(CCNC2=CC(=O)c3ncccc3C2=O)cc1OC | 3.59
CC1(C)OCC2OC3(c4nc(C#N)c(N)o4)OC(C)(C)OC3C2O1 (stereo not drawn) | > 100
CC12CCC(C(=O)OC1=O)C2(C)C (stereo not drawn) | > 100
COn1cc(C=O)c2ccccc21 | > 100
CC1=CC(C2/C(=N/O)C=C(C)CC2(C)C)C(O)C(C)(C)C1 (stereo not drawn) | 33.3
C=CCNC1=C2C[C@@H](C)C[C@@H](OC)[C@@H](OC(=O)CCCN)[C@H](C)/C=C(\C)[C@@H](OC(N)=O)[C@H](OC)/C=C\C=C(/C)C(=O)NC(=CC1=O)C2=O | 44.2
c1cc(-c2ncc(-c3ccc4c(c3)CCCO4)o2)ccn1 | > 100
O=C1NC(=O)C(c2c[nH]c3cc(Br)ccc23)=C1c1cn(C(c2ccccc2)(c2ccccc2)c2ccccc2)cn1 | 31.8
CC(C)=CCS(=O)c1ccccc1NC1=CC(=O)CC(C)(C)C1 (stereo not drawn) | > 100
COC(=O)C1=C(C)NC(C)=C(C(=O)OC)C1c1ccc(/[N+]([O-])=C/c2ccccc2)cc1 | > 100
Cc1cc(C)cc(C(=N)c2ccccc2Cc2cccc3ccccc23)c1 | 34.8
COC1=C(Br)[C@H](O)[C@@]2(C=C1Br)CC(C(=O)NCCCCCN=C(N)N)=NO2 | > 10
CC1(C#N)CC(C)(C)C(/C=C2/CC(C)(C)C(/C=C3/OC(=N)CC3(C)C)=N2)=N1 (stereo not drawn) | 95.9
C#CCn1ncc2c(SCc3ccccc3)ncnc21 | > 100
CCOC(=O)CC1c2ccc(O)cc2OC(=O)C1c1ccc([N+](=O)[O-])cc1 (stereo not drawn) | 81.3
CCN1c2nc3ccccc3nc2N(CC)c2nc3ccccc3nc21 | > 100
CCN(CC)/C(Cl)=C(Cl)\C(=C1\Nc2ccc(OC)cc21)[N+](=O)[O-] | > 100

Test system: SNB-19 CNS
Test: NCI-60 cell line screen, 48 h

Compound | TGI [µM]
COc1ccc(CCNC2=CC(=O)c3ncccc3C2=O)cc1OC | 7.27
CC1(C)OCC2OC3(c4nc(C#N)c(N)o4)OC(C)(C)OC3C2O1 (stereo not drawn) | > 100
CC12CCC(C(=O)OC1=O)C2(C)C (stereo not drawn) | > 100
COn1cc(C=O)c2ccccc21 | > 100
CC1=CC(C2/C(=N/O)C=C(C)CC2(C)C)C(O)C(C)(C)C1 (stereo not drawn) | 29.5
C=CCNC1=C2C[C@@H](C)C[C@@H](OC)[C@@H](OC(=O)CCCN)[C@H](C)/C=C(\C)[C@@H](OC(N)=O)[C@H](OC)/C=C\C=C(/C)C(=O)NC(=CC1=O)C2=O | 32.2
c1cc(-c2ncc(-c3ccc4c(c3)CCCO4)o2)ccn1 | > 100
O=C1NC(=O)C(c2c[nH]c3cc(Br)ccc23)=C1c1cn(C(c2ccccc2)(c2ccccc2)c2ccccc2)cn1 | 97.4
CC(C)=CCS(=O)c1ccccc1NC1=CC(=O)CC(C)(C)C1 (stereo not drawn) | > 100
COC(=O)C1=C(C)NC(C)=C(C(=O)OC)C1c1ccc(/[N+]([O-])=C/c2ccccc2)cc1 | > 100
Cc1cc(C)cc(C(=N)c2ccccc2Cc2cccc3ccccc23)c1 | 43
COC1=C(Br)[C@H](O)[C@@]2(C=C1Br)CC(C(=O)NCCCCCN=C(N)N)=NO2 | > 10
CC1(C#N)CC(C)(C)C(/C=C2/CC(C)(C)C(/C=C3/OC(=N)CC3(C)C)=N2)=N1 (stereo not drawn) | > 100
C#CCn1ncc2c(SCc3ccccc3)ncnc21 | > 100
CCOC(=O)CC1c2ccc(O)cc2OC(=O)C1c1ccc([N+](=O)[O-])cc1 (stereo not drawn) | > 100
CCN1c2nc3ccccc3nc2N(CC)c2nc3ccccc3nc21 | > 100
CCN(CC)/C(Cl)=C(Cl)\C(=C1\Nc2ccc(OC)cc21)[N+](=O)[O-] | > 100
